Assays:
Test in all cases: relative viability (nuclei count vs DMSO), 5 days (fraction); higher = more cells survive
TPCA-1 + Decitabine = compound: C1=CC(=CC=C1C2=CC(=C(S2)NC(=O)N)C(=O)N)F [TPCA-1] + Nc1ncn([C@H]2C[C@H](O)[C@@H](CO)O2)c(=O)n1 [Decitabine] (partner 2 µM)
Outline: (§1)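 For relative viability, nuclei counts in treated wells were divided by those in vehicle wells. Lung cancer cell lines had been pin-tool dosed in 1536-well plates the day after seeding and cultured for 5 days, then fixed and stained in one step (final 0.05% Triton X-100, 1% formaldehyde, 1 ug/ml Hoechst) and imaged at 4×. Doses were one drug alone or a fixed anchor-drug dose plus five library-drug doses (not always all listed) in √10 steps, and values are duplicate-plate medians.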

Lestaurtinib + Foretinib = compound: C[C@]12O[C@H](C[C@]1(O)CO)n1c3ccccc3c3c4c(c5c6ccccc6n2c5c31)CNC4=O [Lestaurtinib] + COc1cc2c(Oc3ccc(NC(=O)C4(C(=O)Nc5ccc(F)cc5)CC4)cc3F)ccnc2cc1OCCCN1CCOCC1 [Foretinib] (partner 0.25 µM)
Outline: as §1

[1] = compound: C1/C(=C\C2=CC=CS2)/C(=O)/C(=C/C3=CC=CS3)/C1 + COc1cccc2cc(-c3nc([C@H]4CC[C@H](C(=O)O)CC4)n4ncnc(N)c34)[nH]c12 [OSI-027] (partner 0.5 µM)
Outline: as §1

[2] = compound: C1/C(=C\C2=CC=CS2)/C(=O)/C(=C/C3=CC=CS3)/C1 + Nc1ncn([C@H]2C[C@H](O)[C@@H](CO)O2)c(=O)n1 [Decitabine] (partner 2 µM)
Outline: as §1

| Cell Line | relative viability (TPCA-1 + Decitabine; first compound 0.1265 µM) | relative viability (TPCA-1 + Decitabine; first compound 0.4 µM) | relative viability (TPCA-1 + Decitabine; first compound 1.265 µM) | relative viability (TPCA-1 + Decitabine; first compound 4 µM) | relative viability (Lestaurtinib + Foretinib; first compound 0.005 µM) | relative viability (Lestaurtinib + Foretinib; first compound 0.01581 µM) | relative viability (Lestaurtinib + Foretinib; first compound 0.05 µM) | relative viability (Lestaurtinib + Foretinib; first compound 0.1581 µM) | relative viability (Lestaurtinib + Foretinib; first compound 0.5 µM) | relative viability ([1]; first compound 0.2 µM) | relative viability ([1]; first compound 0.6325 µM) | relative viability ([1]; first compound 2 µM) | relative viability ([1]; first compound 6.325 µM) | relative viability ([1]; first compound 20 µM) | relative viability ([2]; first compound 0.2 µM) | relative viability ([2]; first compound 0.6325 µM) | relative viability ([2]; first compound 2 µM) | relative viability ([2]; first compound 6.325 µM) | relative viability ([2]; first compound 20 µM) | relative viability (TPCA-1 + Decitabine; first compound 0.04 µM) |
| --- | --- | --- | --- | --- | --- | --- | --- | --- | --- | --- | --- | --- | --- | --- | --- | --- | --- | --- | --- | --- |
| HCC-366 | 0.285 | 0.361 | 0.271 | 0.322 | 0.939 | 0.924 | 0.994 | 1.03 | 0.536 | 1.13 | 1.01 | 1.11 | 0.744 | 0.836 | 0.296 | 0.329 | 0.341 | 0.369 | 0.336 | – |
| HCC-827 | 0.326 | 0.317 | 0.31 | 0.31 | 1.02 | 1.02 | 0.835 | 0.803 | 0.202 | 0.813 | 0.767 | 0.809 | 0.737 | 0.695 | 0.316 | 0.38 | 0.377 | 0.28 | 0.308 | 0.364 |
| HOP-62 | 0.198 | 0.215 | 0.198 | 0.214 | 1.15 | 1.33 | 1.08 | 1.06 | 0.343 | 0.836 | 0.73 | 0.851 | 0.771 | 0.872 | 0.211 | 0.202 | 0.199 | 0.221 | 0.202 | 0.261 |
| IA-LM | – | – | – | – | 1.37 | 1.4 | 1.53 | 1.22 | 0.59 | – | – | – | – | – | – | – | – | – | – | – |
| LC-2-ad | 0.678 | 0.741 | 0.854 | 0.776 | 0.946 | 0.903 | 0.817 | 0.647 | 0.324 | 0.817 | 0.941 | 0.984 | 0.708 | 0.785 | 0.861 | 0.823 | 0.797 | 0.666 | 0.748 | 0.773 |
| LCLC-97TM1 | 0.23 | 0.214 | 0.247 | 0.243 | 0.925 | 1.08 | 0.556 | 0.462 | 0.238 | 0.503 | 0.605 | 0.627 | 0.428 | 0.486 | 0.25 | 0.241 | 0.219 | 0.173 | 0.19 | 0.274 |
| LCLC-103H | 0.719 | 0.772 | 0.788 | 0.811 | 0.752 | 0.848 | 0.547 | 0.485 | 0.261 | 0.466 | 0.464 | 0.603 | 0.502 | 0.426 | 0.803 | 0.747 | 0.77 | 0.554 | 0.742 | 0.716 |
| LK-2 | 0.21 | 0.331 | 0.27 | 0.175 | 1.16 | 1.19 | 0.683 | 0.774 | 0.309 | 0.223 | 0.226 | 0.266 | 0.216 | 0.2 | 0.341 | 0.31 | 0.358 | 0.33 | 0.347 | 0.347 |
| LOU-NH91 | 0.749 | 0.793 | 0.792 | 0.776 | 0.921 | 0.842 | 0.844 | 0.651 | 0.459 | 0.733 | 0.722 | 0.769 | 0.648 | 0.714 | 0.85 | 0.777 | 0.781 | 0.797 | 0.825 | 0.835 |
| LU99A | 0.76 | 0.901 | 0.834 | 0.377 | 0.733 | 0.73 | 0.575 | 0.469 | 0.247 | 0.329 | 0.286 | 0.33 | 0.322 | 0.291 | 0.878 | 0.969 | 0.982 | 0.629 | 0.866 | 0.923 |
| LXF-289 | 0.345 | 0.395 | 0.403 | 0.34 | 1.02 | 1.04 | 0.827 | 0.905 | 0.198 | 0.869 | 0.811 | 0.852 | 0.696 | 0.729 | 0.371 | 0.386 | 0.355 | 0.373 | 0.344 | 0.384 |
| NCI-H23 | 0.277 | 0.289 | 0.317 | 0.262 | 1.02 | 1.22 | 0.837 | 0.635 | 0.321 | 0.689 | 0.683 | 0.717 | 0.572 | 0.579 | 0.32 | 0.293 | 0.314 | 0.34 | 0.285 | 0.319 |
| NCI-H522 | 0.674 | 0.662 | 0.646 | 0.58 | – | – | – | – | – | 0.793 | 0.715 | 0.841 | 0.518 | 0.727 | 0.738 | 0.753 | 0.722 | 0.673 | 0.604 | 0.658 |
| NCI-H1299 | – | – | – | – | 1.07 | 1.14 | 0.68 | 0.832 | 0.671 | – | – | – | – | – | – | – | – | – | – | – |
| NCI-H1563 | – | – | – | – | 0.977 | 0.96 | 0.978 | 0.97 | 0.991 | 0.774 | 0.787 | 0.717 | 0.729 | 0.773 | – | – | – | – | – | – |
| NCI-H1623 | – | – | – | – | 0.872 | 0.812 | 0.818 | 0.671 | 0.695 | 0.455 | 0.465 | 0.445 | 0.434 | 0.405 | – | – | – | – | – | – |
| NCI-H1648 | 0.578 | 0.495 | 0.519 | 0.569 | – | – | – | – | – | 0.282 | 0.269 | 0.307 | – | 0.258 | 0.489 | 0.478 | 0.603 | 0.45 | 0.432 | 0.605 |
| NCI-H1703 | – | – | – | – | 0.322 | 0.305 | 0.27 | 0.315 | 0.252 | – | – | – | – | – | – | – | – | – | – | – |
| NCI-H1792 | 0.465 | 0.551 | 0.474 | 0.307 | – | – | – | – | – | 0.84 | 0.619 | 0.754 | 0.694 | 0.67 | 0.642 | 0.519 | 0.561 | 0.495 | 0.496 | 0.674 |
| NCI-H2228 | – | – | – | – | 0.885 | 0.896 | 0.523 | 0.379 | 0.254 | 0.62 | 0.602 | 0.81 | 0.521 | 0.537 | – | – | – | – | – | – |
